Test results reported in patent US20200022967A1, “Use of 2-carboxamide cycloamino urea derivatives in the treatment of EGFR dependent diseases or diseases that have acquired resistance to agents that target EGFR family members” (Novartis AG, priority 2010, published 2020).

Experiments:
[1] = Body weight loss in HBCx-5 xenograft study (Example 5); conditions: capecitabine single agent; significant and transient
Description: Experiments were performed in female HSD: athymic nude-Foxn1nu mice approximately 8-10 weeks of age and weighing approximately 19-25 grams. The mice were allowed to acclimate with access to food and water ad libitum for 6 days prior to the study. When body weight loss reaches 15% compared to the first day of treatment, DietGel® was provided to the animals.
The mice were divided into five groups each comprising ten mice. Treatments were initiated 34 days post-implantation of the HBCx-5 xenograft tumor. […] For xenograft implantation, the mice were anesthetized with 100 mg/kg ketamine hydrochloride and 10 mg/kg xylazine. Using asceptic technique, the mice were grafted in interscapular with 3 mm on 3 mm tumor fragment. […] Tumors were measured with calipers three times per week at the start of dosing. Tumors were calculated using the formula: =width^2×length/2. Tumor size and body weight were measured three times per week during the treatment period. The planned endpoints for the experiment were a treatment phase of six weeks and no follow-up phase.
Antitumor activity is expressed as T/C % (mean change of tumor volume of treated animals/mean change of tumor volume of control animals)×100. Tumor volume and relative body weight were used for statistical analysis. Group comparisons were performed using a Mann Whitney non parametric test between treated group and control group.

HBCx-5 xenograft tumor = experiment: HBCx-5 breast cancer xenograft, antitumor activity (Example 5); format: in vivo, mice; conditions: capecitabine 40 mg/kg single agent p.o., five times per week, two cycles; p<0.001
Description: Compound A was suspended at mg/ml in 0.5% methylcellulose (Sigma Aldrich, St. Louis, Mo.). It was homogenized by stirring vortexing and sonication. The suspension was stored at 4° C. for 7 days protected from light. […] Stock solution at 21 mg/ml was diluted just before administration at 1 mg/ml with sterile water for injection. Capecitabine (Xeloda®, Roche) at […] was kept at 4° C. protected from light. Capecitabine pellets were crushed and suspended in NaCl 0.9%.
Dose was body weight adjusted at each injection.
Capecitabine was administered by oral gavage (p.o.) at […], five times per week for two weeks (i.e., five consecutive dosing days/week). After a one week rest, a second treatment cycle was performed.

[2] = Body weight nadir and deaths in NCI-N87 lapatinib study (Example 6)
Description: Treatments started eight days post tumor cell implantation and lasted for 59 consecutive days or until tumor volume=1000 mm^3. […] For the b.i.d. dosing schedule, the first dose was given p.m. on Day 1 and last dose a.m. on Day 22. […] Body weights were recorded on Days 1-5, on each treatment day (except weekends), and twice weekly thereafter until end of the study.

NCI-N87 tumors = experiment: NCI-N87 xenograft in CB17 SCID mice, Compound A alone and with lapatinib (Example 6); format: in vivo; conditions: for Median TTE: control 26.2, vs G1 ***; for Mean Tumor Volume (no. animals, n) Day 59: n=1
Description: The NCI-N87 cells were harvested with 5× trypsin. Eight days after tumor implantation (on Day 1 of the study), mice with an individual tumor volume of 88-196 mm^3 were sorted into 10 groups of ten mice with a group mean tumor volume of 143-149 mm^3.
Where applicable, data is presented as mean±SEM. Each animal was euthanized when its neoplasm reached the endpoint volume (1000 mm^3), or on the last day of the study (Day 59). Time to endpoint (TTE) is calculated by the equation: TTE=(log10(endpoint volume)−b)/m, where TTE is expressed in days, endpoint volume is in mm3, b is the intercept and m is the slope of the line obtained by linear regression of a log-transformed tumor growth data set. Treatment efficacy was determined from Tumor Growth Delay (TGD), which was defined as the increase in the median time to endpoint (TTE) for a treatment group compared to the control group (TGD=T−C), expressed in days, or as a percentage of the median TTE of the control group (% TGD=((T−C)/C)×100), wherein T=median TTE for a treatment group and C=median TTE for the designated control group.
Statistical and graphical analyses was performed with Prism 3.03 (GraphPad) for Windows. For all tests, the level of significance of differences was done using ANOVA, with Bartlett's test; and a post-hoc Dunnett's multiple comparison test compared the mean change for each drub-treated group to the mean for Group 1. Survival was analyzed by the Kaplan-Meier method. The logrank test was employed to analyze the significance of the difference between the overall survival experiences of two groups, based on time to endpoint (TTE) values. The two-tailed statistical analyses were conducted at P=0.05. Prism summarizes test results as not significant (ns) at P>0.05, significant (symbolized by “*”) at 0.01<P<0.05, very significant (symbolized by “**”) at 0.001<P<0.01, and extremely significant (symbolized by “***”) at P<0.001.

[3] = Group 4 (10 animals): lapatinib 50 mg/kg p.o. b.i.d.
[4] = Group 5 (10 animals): lapatinib 100 mg/kg p.o. once daily
[5] = Group 6: lapatinib 150 mg/kg p.o. once daily
[6] = Group 4: lapatinib 50 mg/kg p.o. b.i.d.
[7] = Group 5: lapatinib 100 mg/kg p.o. once daily
[8] = Group 6 (9 animals): lapatinib 150 mg/kg p.o. once daily

CCCCCOC(=O)Nc1nc(=O)n([C@@H]2O[C@H](C)[C@@H](O)[C@H]2O)cc1F [Capecitabine, reference compound]
body weight loss [1]: 9.1%
T/C (HBCx-5 xenograft tumor): 9.03%

CS(=O)(=O)CCNCc1ccc(-c2ccc3ncnc(Nc4ccc(OCc5cccc(F)c5)c(Cl)c4)c3c2)o1 [lapatinib]
Deaths (TR/NTR) [2, 3]: 0
Deaths (TR/NTR) [2, 4]: 0
Deaths NTR = non-treatment related [2, 5]: NTR: 1
Deaths TR = treatment-related [2, 5]: TR: 0
Regressions CR (NCI-N87 tumors; [3]): CR: 0
Regressions PR (NCI-N87 tumors; [3]): PR: 0,
Median TTE (NCI-N87 tumors; Group 4 (10 animals): lapatinib 50 mg/kg p.o. b.i.d. for 21 days): 47.7 days
% TGD (NCI-N87 tumors; [6]): 66%
Mean Tumor Volume (no. animals, n) Day 59 (NCI-N87 tumors; [6]): 608 (1)
Regressions CR (NCI-N87 tumors; [4]): CR: 0
Regressions PR (NCI-N87 tumors; [4]): PR: 0,
% TGD (NCI-N87 tumors; [7]): 82%
T-C (NCI-N87 tumors; [7]): 16.4 days
Mean Tumor Volume (no. animals, n) Day 59 (NCI-N87 tumors; [7]): 750 (1)
Regressions CR (NCI-N87 tumors; [8]): CR: 0
Regressions PR (NCI-N87 tumors; [8]): PR: 1,
Median TTE (NCI-N87 tumors; Group 6 (9 animals): lapatinib 150 mg/kg p.o. once daily for 21 days): 50.6 days
% TGD (NCI-N87 tumors; [5]): 63%
T-C (NCI-N87 tumors; [5]): 24.4 days
